Key:
Assay type in all cases: in vivo
[1] = test system: C57 mice; assay: Reversal of THC-induced hypolocomotion in mice; settings: 30 min pre-test, THC 3 mg/kg ip 10 min pre-test
Protocol: Reversal of THC-induced hypolocomotion in mice: Six C57 mice (Charles River, Wilmington, Mass.) were administered Δ9-tetrahydrocannabinol (THC) 3 mg/kg ip, 10 min pre-test. […] In this apparatus, four qualitatively different measures of locomotor activity are automatically scored. […] The magnitude of the effect is similar to that elicited by rimonabant given at 3 mg/kg po, and given 30 min pre-test.

[2] = Single ascending oral dose pharmacokinetics in humans; settings: human plasma, single oral dose 1-200 mg
Protocol: Human subjects were assigned to six different dosage groups of ANEB-001. Groups assigned to receive dosages of 1 mg, 5 mg, 25 mg, 100 mg, or 200 mg had six subjects each, and the 150 mg dosage group had four subjects. ANEB-001 was administered orally to subjects in each group, and the plasma concentration of ANEB-001 in each subject was measured as a function of time after dosing (FIG. 2).

[3] = test system: rat; assay: Repeated dose (28 day) toxicity study in rat; settings: 28 day repeated dose
Protocol: (§1) Repeated dose (28 day) toxicity studies were conducted using ANEB-001 in two species, rat and primate, selected on the basis of acceptable bioavailability and comparison of metabolite profiles with those in human liver microsomes.

[4] = test system: cynomolgus monkey; assay: Repeat dose (28 day) toxicity study in cynomolgus monkey; settings: 28 day repeat dose, 160 mg/kg/day
Protocol: as §1

Row | SMILES | magnitude of the effect on THC-induced hypolocomotion (total active time), compared with ANEB-001 ([1]; 3 mg/kg po) | Tmax [2] [h] | half-life ([2]; read-out: terminal elimination half-life) [days] | no observed adverse effect level [3] [mg/kg/day] | hepatic findings ([3]; 75 mg/kg/day) | adverse effects at the highest dose tested ([3]; highest dose 75 mg/kg/day) | action of THC on the total active time parameter of locomotor measures ([1]; 30 mg/kg orally, 15 min in locomotor activity cages, FIG. 1) | adverse effects at the highest dose level studied [4]
1 | Cc1c(C(=O)NN2CCCCC2)nn(-c2ccc(Cl)cc2Cl)c1-c1ccc(Cl)cc1 [rimonabant, reference compound] | similar |  |  |  |  |  |  | 
2 | CC(C)(C)NC(=O)N1CC(O[C@H](c2ccc(Cl)cc2)c2ccccc2C(F)(F)F)C1 [ANEB-001, 3-[(R)-2-(trifluoromethyl)-4′-chlorobenzhydryloxy]-N-(tert-butyl)azetidine-1-carboxamide] |  | 1 to 1.6 | ≤ 19 | 75 | hepatic changes consistent with an adaptive response | No adverse effects were observed | significantly reversed | no adverse effects were observed

From patent publication US11141404B1, “Formulations and methods for treating acute cannabinoid overdose” (Anebulo Pharmaceuticals, Inc., priority 2020, dated 2021)
